# Experimental data reported in US11318113B2, “Compounds for the treatment of diseases linked to mitochondrial reactive oxygen species (ROS) production” (OP2 DRUGS, priority 2015, dated 2022).
# Legend:
# [1] = test system: normoxic, chronic hypoxic and monocrotaline-treated rats; assay: Pulmonary hypertension rat models (chronic hypoxia, monocrotaline); assay type: in vivo
# Procedure: Male Wistar rats (300-400 g) were separated into 3 groups and used 4 weeks later: • the first group (control or normoxic rats—N rats) was housed in ambient room air; • the second group (chronic hypoxic rats—CH rats) was exposed to chronic hypoxia for 3 weeks in a hypobaric chamber (50 kPa), and • the third group (MCT rats) was injected with a single intraperitoneal dose of monocrotaline at a dose of 60 mg/kg. MCT (Sigma, St Quentin Fallavier, France) was dissolved in an equal volume of HCl ([…]) and NaOH ([…]).
# In each group, some animals were treated with AOL (Sulfarlem, EG Labo Eurogenerics. Crushed tablets mixed with food, fed ad libitum) and some other animals were untreated. Eaten food was weighed every day to estimate the AOL dose administered. 10 mg/kg/day was thus administered during the 3 weeks of experiment for the second and third groups.
# Pulmonary hypertension was assessed by measuring both the mean pulmonary arterial pressure (mPAP) and right ventricle hypertrophy. To measure PAP, N, CH and MCT rats were anesthetized with pentobarbital sodium (Centravet) by intraperitoneal injection (60 mg/kg) and mPAP was measured, in closed-chest rats, through a catheter inserted in the right jugular vein, then through the right atria and the right ventricle into the pulmonary artery, and attached to a Baxter Uniflow gauge pressure transducer.
# Right ventricle hypertrophy was estimated by the ratio of right ventricle (RV) to left ventricle plus septum (LV+S) weight (Fulton index).
# Pulmonary arteries (PA) remodeling was assessed by measuring the percentage of the PA medial thickness from sections of paraffin-embedded lung. Lung sections were first stained with hematoxylin and eosin (VWR) according to common histological procedure.
# [2] = stated as known; cited from earlier work
# [3] = test system: TH-positive neurons in the substantia nigra of MPTP-treated mice; assay: Sub-chronic MPTP mouse model of Parkinson's disease, TH-positive neuron count; assay type: in vivo; settings: 5 mg/kg ip, 11 consecutive days; p<0.01
# Procedure: In this study, the potential neuroprotective effects of AOL were assessed by counting the number of tyrosine hydroxylase (TH)-positive neurons in the substantia nigra (SN) in the sub-chronic 1-methyl-4-phenyl-1,2,3,6-tetrahydropyridine (MPTP) mouse model of Parkinson's disease. Mice were treated with AOL (5 mg/kg; ip) or vehicle for 11 consecutive days. MPTP (20 mg/kg; ip) or saline was administered on treatment days 4-8. All mice were killed on day 12 following final administration of treatment.
# For vehicle conditions, the test item was dissolved in 0.5% DMSO/0.95% Tween 20 in saline while AOL was administered intraperitoneally (i.p.) at the dose of 5 mg/kg. […]
# Unbiased stereological analysis was used to estimate the number of TH-immunopositive (TH+) neurons (Mercator, Explora Nova, La Rochelle, France). The boundaries of the SN were determined by examining the size and shape of the different TH+ neuronal groups. The volume was calculated by using the formula: V=ΣS td; where ΣS is the sum of surface areas, t is the average section thickness and d is the number of slices between two consecutive sections measured. […] The following formula was used to estimate the number of TH+ neurons: N=V(SN) (ΣQ−/ΣV(dis)); where N is the estimation of cell number, V is the volume of the SN, ΣQ− is the number of cells counted in the dissectors, and ΣV(dis) is the total volume of all the dissectors. […]
smiles,measurement,setting,value
"COc1ccc(-c2cc(=S)ss2)cc1 [AOL, 5-(4-methoxyphenyl)-3H-1,2-dithiole-3-thione]",reduction of pulmonary arteries remodeling (printed: pulmonary arteries diameter),"[1]; CH rats, oral 10 mg/kg/day",~30%
same,mean pulmonary arterial pressure (mPAP),"[1]; CH rats, oral 10 mg/kg/day, 3 weeks",even more significantly
same,mean pulmonary arterial pressure (mPAP),"[1]; MCT rats, oral 10 mg/kg/day, 3 weeks",decreased
same,mean pulmonary arterial pressure (mPAP),[1]; normoxic (N) rats,no significant effect
same,Fulton index (right ventricular hypertrophy),[1]; oral 10 mg/kg/day,no effect
same,bioavailability,[2],very short
same,increase in number of TH+ cells in the SN compared to vehicle in MPTP-treated mice,[3],44%
